Test results reported in patent US9758485B2, “Compounds for controlling arthropods” (priority 2013, dated 2017).

tested on: not listed separately; test: logP determination by HPLC on a reversed-phase column (C18), EEC Directive 79/831 Annex V.A8; type: physicochemical; settings: HPLC-MS, reversed-phase column (C18)

SMILES	log P
Cc1ncc(-c2cnn(-c3c(Cl)cc(C(F)(C(F)(F)F)C(F)(F)F)cc3Cl)c2)cc1C(=O)N(C)C1CC1 [I-T3-133]	3.7
COc1ncc(-c2cnn(-c3c(C)cc(C(F)(C(F)(F)F)C(F)(F)F)cc3C)c2)cc1C(=O)NC1(C#N)CC1 [I-T3-141]	4.4
COc1ncc(-c2cnn(-c3c(C)cc(C(F)(C(F)(F)F)C(F)(F)F)cc3C)c2)cc1C(=O)NC1CC1 [I-T3-143]	4.6
O=C(NC1CC1)c1cc(-c2cnn(-c3c(Br)cc(C(F)(C(F)(F)F)C(F)(F)F)cc3C(F)(F)F)c2)cnc1Cl [I-T3-160]	4.0
N#CC1(NC(=O)c2cc(-c3cnn(-c4c(Br)cc(C(F)(C(F)(F)F)C(F)(F)F)cc4C(F)(F)F)c3)cnc2Cl)CC1 [I-T3-165]	3.9

tested on: Rhipicephalus sanguineus; test: Rhipicephalus sanguineus - in vitro contact tests with adult brown dog ticks; type: in vivo; settings: application rate 1 μg/cm^2, after 48 h (dead or moribund)
Method: Rhipicephalus sanguineus—In Vitro Contact Tests with Adult Brown Dog Ticks
(§1) For the coating of the test tubes, 9 mg of active ingredient are first dissolved in 1 ml of acetone p.a. and then diluted to the desired concentration with acetone p.a. 250 μl of the solution are distributed homogeneously on the inner walls and base of a 25 ml test tube by turning and rocking on an orbital shaker (rocking rotation at 30 rpm for 2 h). With 900 ppm active ingredient solution and internal surface 44.7 cm^2, given homogeneous distribution, an area-based dose of 5 μg/cm^2 is achieved.
After the solvent has evaporated off, the tubes are populated with 5-10 adult dog ticks (Rhipicephalus sanguineus), sealed with a perforated plastic lid and incubated in a horizontal position in the dark at room temperature and ambient humidity. After 48 h, efficacy is determined. To this end, the ticks are knocked to the floor of the tube and incubated on a hotplate at 45-50° C. for not more than 5 min. Ticks which remain motionless on the floor or move in such an uncoordinated manner that they are unable to deliberately avoid the heat by climbing upwards are considered to be dead or moribund.
An efficacy of 100% means that all the ticks were dead or moribund. 0% efficacy means that none of the ticks had been harmed.

SMILES	efficacy [%]
COc1ncc(-c2cnn(-c3c(C)cc(C(F)(C(F)(F)F)C(F)(F)F)cc3C)c2)cc1C(=O)NC1(C#N)CC1 [I-T3-141]	100

same assay, conditions: application rate 5 μg/cm^2, after 48 h (dead or moribund)

SMILES	efficacy [%]
COc1ncc(-c2cnn(-c3c(C)cc(C(F)(C(F)(F)F)C(F)(F)F)cc3C)c2)cc1C(=O)NC1CC1 [I-T3-143]	80
O=C(NC1CC1)c1cc(-c2cnn(-c3c(Br)cc(C(F)(C(F)(F)F)C(F)(F)F)cc3C(F)(F)F)c2)cnc1Cl [I-T3-160]	100
N#CC1(NC(=O)c2cc(-c3cnn(-c4c(Br)cc(C(F)(C(F)(F)F)C(F)(F)F)cc4C(F)(F)F)c3)cnc2Cl)CC1 [I-T3-165]	100

tested on: Ctenocephalides felis; test: Ctenocephalides felis - in vitro contact tests with adult cat fleas; type: in vivo; settings: application rate 5 μg/cm^2 (=500 g/ha), after 48 h (dead or moribund)
Method: Ctenocephalides felis—In Vitro Contact Tests with Adult Cat Fleas
as §1, with “surface area” for “surface”
After the solvent has evaporated off, the tubes are populated with 5-10 adult cat fleas (Ctenocephalides felis), sealed with a perforated plastic lid and incubated in a horizontal position at room temperature and ambient humidity. After 48 h, efficacy is determined. To this end, the test tubes are stood upright and the fleas are knocked to the base of the tube. Fleas which remain motionless at the base or move in an uncoordinated manner are considered to be dead or moribund.
100% efficacy means that all the fleas were dead or moribund. 0% efficacy means that no fleas were harmed.

SMILES	efficacy [%]
Cc1ncc(-c2cnn(-c3c(Cl)cc(C(F)(C(F)(F)F)C(F)(F)F)cc3Cl)c2)cc1C(=O)N(C)C1CC1 [I-T3-133]	100
COc1ncc(-c2cnn(-c3c(C)cc(C(F)(C(F)(F)F)C(F)(F)F)cc3C)c2)cc1C(=O)NC1CC1 [I-T3-143]	100
O=C(NC1CC1)c1cc(-c2cnn(-c3c(Br)cc(C(F)(C(F)(F)F)C(F)(F)F)cc3C(F)(F)F)c2)cnc1Cl [I-T3-160]	100
N#CC1(NC(=O)c2cc(-c3cnn(-c4c(Br)cc(C(F)(C(F)(F)F)C(F)(F)F)cc4C(F)(F)F)c3)cnc2Cl)CC1 [I-T3-165]	100

tested on: Boophilus microplus; test: Boophilus microplus - injection test; type: in vivo; settings: application rate 20 μg/animal; injected into engorged adult female ticks; laying of fertile eggs, after 7 days
Method in brief: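 Read-out is % efficacy from fertile egg laying at 7 days: 100% means no tick laid fertile eggs, 0% means all eggs fertile. Each of 5 engorged adult females received 1 μl of DMSO test solution injected abdominally.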

SMILES	efficacy [%]
Cc1ncc(-c2cnn(-c3c(Cl)cc(C(F)(C(F)(F)F)C(F)(F)F)cc3Cl)c2)cc1C(=O)N(C)C1CC1 [I-T3-133]	100
COc1ncc(-c2cnn(-c3c(C)cc(C(F)(C(F)(F)F)C(F)(F)F)cc3C)c2)cc1C(=O)NC1(C#N)CC1 [I-T3-141]	100
COc1ncc(-c2cnn(-c3c(C)cc(C(F)(C(F)(F)F)C(F)(F)F)cc3C)c2)cc1C(=O)NC1CC1 [I-T3-143]	100
O=C(NC1CC1)c1cc(-c2cnn(-c3c(Br)cc(C(F)(C(F)(F)F)C(F)(F)F)cc3C(F)(F)F)c2)cnc1Cl [I-T3-160]	100
N#CC1(NC(=O)c2cc(-c3cnn(-c4c(Br)cc(C(F)(C(F)(F)F)C(F)(F)F)cc4C(F)(F)F)c3)cnc2Cl)CC1 [I-T3-165]	100

tested on: Boophilus microplus Parkhurst strain, SP-resistant; test: Boophilus microplus - dip test; type: in vivo; settings: application rate 100 ppm; dip of engorged adult female ticks; laying of fertile eggs, after 7 days
Method: Boophilus microplus—Dip Test
Test animals: cattle ticks (Boophilus microplus) Parkhurst strain, SP-resistant
(§2) Solvent: dimethyl sulphoxide
10 mg of active ingredient are dissolved in 0.5 ml of dimethyl sulphoxide. For the purpose of producing a suitable formulation, the active ingredient solution is diluted with water to the concentration desired in each case.
This active ingredient formulation is pipetted into tubes. 8-10 adult engorged female cattle ticks (Boophilus microplus) are transferred into a further tube with holes. The tube is immersed into the active ingredient formulation, and all the ticks are completely wetted. After the liquid has run out, the ticks are transferred on filter discs into plastic dishes and stored in a climate-controlled room.
Efficacy is assessed after 7 days by laying of fertile eggs. Eggs which are not visibly fertile are stored in a climate-controlled cabinet until the larvae hatch after about 42 days. An efficacy of 100% means that none of the ticks has laid any fertile eggs; 0% means that all the eggs are fertile.

SMILES	efficacy [%]
Cc1ncc(-c2cnn(-c3c(Cl)cc(C(F)(C(F)(F)F)C(F)(F)F)cc3Cl)c2)cc1C(=O)N(C)C1CC1 [I-T3-133]	100
O=C(NC1CC1)c1cc(-c2cnn(-c3c(Br)cc(C(F)(C(F)(F)F)C(F)(F)F)cc3C(F)(F)F)c2)cnc1Cl [I-T3-160]	100
N#CC1(NC(=O)c2cc(-c3cnn(-c4c(Br)cc(C(F)(C(F)(F)F)C(F)(F)F)cc4C(F)(F)F)c3)cnc2Cl)CC1 [I-T3-165]	100

tested on: Ctenocephalides felis; test: Ctenocephalides felis - oral test; type: in vivo; settings: application rate 100 ppm in citrated cattle blood; adult fleas; kill after 2 days
Method in brief: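 Percentage mortality recorded at 2 days, where 0% means no fleas killed. Compound dissolved in DMSO and diluted in citrated cattle blood, which roughly 20 unfed adult C. felis imbibe via a parafilm membrane.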

SMILES	efficacy [%]
Cc1ncc(-c2cnn(-c3c(Cl)cc(C(F)(C(F)(F)F)C(F)(F)F)cc3Cl)c2)cc1C(=O)N(C)C1CC1 [I-T3-133]	100
COc1ncc(-c2cnn(-c3c(C)cc(C(F)(C(F)(F)F)C(F)(F)F)cc3C)c2)cc1C(=O)NC1(C#N)CC1 [I-T3-141]	100
COc1ncc(-c2cnn(-c3c(C)cc(C(F)(C(F)(F)F)C(F)(F)F)cc3C)c2)cc1C(=O)NC1CC1 [I-T3-143]	100
O=C(NC1CC1)c1cc(-c2cnn(-c3c(Br)cc(C(F)(C(F)(F)F)C(F)(F)F)cc3C(F)(F)F)c2)cnc1Cl [I-T3-160]	100
N#CC1(NC(=O)c2cc(-c3cnn(-c4c(Br)cc(C(F)(C(F)(F)F)C(F)(F)F)cc4C(F)(F)F)c3)cnc2Cl)CC1 [I-T3-165]	100

tested on: Lucilia cuprina; test: Lucilia cuprina test; type: in vivo; settings: application rate 100 ppm; L1 larvae in minced horsemeat; kill after 2 days
Method in brief: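 Mortality (%) of first-instar blowfly larvae, about 20 per vessel, recorded 2 days after exposure to compound-treated minced horsemeat. Compound dissolved in dimethyl sulphoxide, then water-diluted to the desired concentration.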

SMILES	efficacy [%]
Cc1ncc(-c2cnn(-c3c(Cl)cc(C(F)(C(F)(F)F)C(F)(F)F)cc3Cl)c2)cc1C(=O)N(C)C1CC1 [I-T3-133]	100
COc1ncc(-c2cnn(-c3c(C)cc(C(F)(C(F)(F)F)C(F)(F)F)cc3C)c2)cc1C(=O)NC1(C#N)CC1 [I-T3-141]	100
COc1ncc(-c2cnn(-c3c(C)cc(C(F)(C(F)(F)F)C(F)(F)F)cc3C)c2)cc1C(=O)NC1CC1 [I-T3-143]	100
O=C(NC1CC1)c1cc(-c2cnn(-c3c(Br)cc(C(F)(C(F)(F)F)C(F)(F)F)cc3C(F)(F)F)c2)cnc1Cl [I-T3-160]	100
N#CC1(NC(=O)c2cc(-c3cnn(-c4c(Br)cc(C(F)(C(F)(F)F)C(F)(F)F)cc4C(F)(F)F)c3)cnc2Cl)CC1 [I-T3-165]	100

tested on: Musca domestica; test: Musca domestica test; type: in vivo; settings: application rate 100 ppm; adult houseflies; kill after 2 days
Method: as §2
To produce an appropriate active ingredient formulation, 10 mg of active ingredient are mixed with 0.5 ml of dimethyl sulphoxide, and the concentrate is diluted with water to the desired concentration.
Vessels containing a sponge treated with sugar solution and the active ingredient formulation of the desired concentration are populated with 10 adult houseflies (Musca domestica).
After 2 days, the kill in % is determined. 100% means that all of the flies have been killed; 0% means that none of the flies have been killed.

SMILES	efficacy [%]
Cc1ncc(-c2cnn(-c3c(Cl)cc(C(F)(C(F)(F)F)C(F)(F)F)cc3Cl)c2)cc1C(=O)N(C)C1CC1 [I-T3-133]	100
COc1ncc(-c2cnn(-c3c(C)cc(C(F)(C(F)(F)F)C(F)(F)F)cc3C)c2)cc1C(=O)NC1(C#N)CC1 [I-T3-141]	100
COc1ncc(-c2cnn(-c3c(C)cc(C(F)(C(F)(F)F)C(F)(F)F)cc3C)c2)cc1C(=O)NC1CC1 [I-T3-143]	100
O=C(NC1CC1)c1cc(-c2cnn(-c3c(Br)cc(C(F)(C(F)(F)F)C(F)(F)F)cc3C(F)(F)F)c2)cnc1Cl [I-T3-160]	100
N#CC1(NC(=O)c2cc(-c3cnn(-c4c(Br)cc(C(F)(C(F)(F)F)C(F)(F)F)cc4C(F)(F)F)c3)cnc2Cl)CC1 [I-T3-165]	100
